Structures are written as SMILES.

mu-opioid receptor, sequence (P35372 whole entry, species assumed): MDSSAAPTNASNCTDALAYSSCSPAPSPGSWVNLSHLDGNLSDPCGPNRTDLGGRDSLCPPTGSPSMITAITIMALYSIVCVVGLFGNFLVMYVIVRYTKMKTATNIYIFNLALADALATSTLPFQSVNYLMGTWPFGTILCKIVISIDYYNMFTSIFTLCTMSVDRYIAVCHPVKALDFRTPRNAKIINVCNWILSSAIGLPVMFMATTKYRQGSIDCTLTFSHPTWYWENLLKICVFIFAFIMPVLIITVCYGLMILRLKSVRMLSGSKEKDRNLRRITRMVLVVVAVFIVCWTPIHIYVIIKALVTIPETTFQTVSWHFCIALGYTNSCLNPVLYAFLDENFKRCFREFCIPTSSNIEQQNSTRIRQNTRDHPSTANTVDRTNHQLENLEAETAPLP

The first assay has as its target mu-opioid receptor (Homo sapiens, UniProt P35372). Nature of the assay: biochemical. Conditions: […]; class symbol combines EC50 and efficacy; read-out: GTP Activity.
For `COCCC1(C)C(=O)C(c2nc3ccccc3[nH]2)=C(N)N1c1cc(OC)cc(OC)c1` (stereo not drawn) [compound 219], the EC50 lay in the range of 100 to 1000 nM. Consider `CNC1=C(c2nc3ccccc3[nH]2)C(=O)[C@H](CNC(=O)COC)N1c1cc(OC)cc(OC)c1` [compound 315], for which the EC50 was less than 100 nM. `CNC1=C(c2nc3ccccc3[nH]2)C(=O)C2(CNC(=O)C2)N1c1cc(OC)cc(OC)c1` (stereo not drawn) [compound 274]: the EC50 lay within 100 to 1000 nM. As for `CNC1=C(c2nc3ccccc3[nH]2)C(=O)C(C)(Cc2ccco2)N1c1cc(OC)cc(OC)c1` (stereo not drawn) [compound 280], the EC50 lay in the range of 100 to 1000 nM.

Consider `COc1cc(OC)cc(N2C(N)=C(c3nc4ccccc4[nH]3)C(=O)[C@]23C[C@H](O)C3)c1` [compound 258], for which the EC50 lay in the range of 100 to 1000 nM.

As for `CNC1=C(c2nc3ccccc3[nH]2)C(=O)C2(CC(O)C2)N1c1cc(OC)cc(OC)c1` (stereo not drawn) [compound 259], the EC50 is less than 100 nM. On to `COc1cc(OC)cc(N2C(N)=C(c3nc4ccccc4[nH]3)C(=O)C2CCCCO)c1` (stereo not drawn) [compound 223], for which the EC50 was 100 to 1000 nM. Still for that read-out and setting: the result for `CCC(=O)N1CC2(C1)C(=O)C(c1nc3ccccc3[nH]1)=C(N)N2c1cc(OC)cc(OC)c1` [compound 249] reads 1000 to 10000 nM. Take `COc1cc(OC)cc(N2C(N)=C(c3nc4ccccc4[nH]3)C(=O)C2CCc2ccccc2)c1` (stereo not drawn) [compound 229]: the EC50 is 1000 to 10000 nM. As for `COc1cc(OC)cc(N2C(N)=C(c3nc4ccccc4[nH]3)C(=O)C2CCN2CCCC2)c1` (stereo not drawn) [compound 237], the EC50 was 1000 to 10000 nM.

For `CNc1c(-c2nc3ccccc3[nH]2)c(=O)n(C2CCC2)n1-c1cc(OC)cc(OC)c1` [compound 269], the EC50 lay within 100 to 1000 nM.

Turning to `COc1cc(OC)cc(N2C(N)=C(c3nc4ccccc4[nH]3)C(=O)C2(C)CCO)c1` (stereo not drawn) [compound 216], the EC50 was in the range of 100 to 1000 nM. On to `CNC1=C(c2nc3ccccc3[nH]2)C(=O)[C@@](C)(CCNC(C)=O)N1c1cc(OC)cc(OC)c1` [compound 304], for which the EC50 was less than 100 nM. With `CNc1c(-c2nc3ccccc3[nH]2)c(=O)n(CCO)n1-c1cc(OC)cc(OC)c1` [compound 265], the EC50 is 100 to 1000 nM. For `COc1cc(OC)cc(N2C(N)=C(c3nc4ccccc4[nH]3)C(=O)C23CC(=O)C3)c1` [compound 207], the EC50 was 100 to 1000 nM. As for `CNC1=C(c2nc3ccccc3[nH]2)C(=O)C2(CCCN(C(C)=O)C2)N1c1cc(OC)cc(OC)c1` (stereo not drawn) [compound 273], the EC50 was 100 to 1000 nM. Consider `CNC1=C(c2nc3ccccc3[nH]2)C(=O)[C@](C)(CNC(=O)COC)N1c1cc(OC)cc(OC)c1` [compound 317], for which the EC50 lay within 100 to 1000 nM. Take `CNC1=C(c2nc3ccccc3[nH]2)C(=O)C(C)(CC(C)O)N1c1cc(OC)cc(OC)c1` (stereo not drawn) [compound 309]: the EC50 is less than 100 nM. With `CNC1=C(c2nc3ccccc3[nH]2)C(=O)C(C)(CCNC(C)=O)N1c1cc(OC)cc(OC)c1` (stereo not drawn) [compound 284], the EC50 was less than 100 nM. On to `CNC1=C(c2nc3ccccc3[nH]2)C(=O)C(C)(C(C)=O)N1c1cc(OC)cc(OC)c1` (stereo not drawn) [compound 277], for which the EC50 is 100 to 1000 nM. Regarding `CNC1=C(c2nc3ccccc3[nH]2)C(=O)C(CNC(=O)COC)N1c1cc(OC)cc(OC)c1` (stereo not drawn) [compound 289], the EC50 was less than 100 nM. Still for that read-out and setting: to `CNc1c(-c2nc3ccccc3[nH]2)c(=O)n(CCCO)n1-c1cc(OC)cc(OC)c1` [compound 267] belongs less than 100 nM; to `COc1cc(OC)cc(N2C(N)=C(c3nc4ccccc4[nH]3)C(=O)C2(C)c2cccc(O)c2)c1` (stereo not drawn) [compound 210], 1000 to 10000 nM; to `CNC1=C(c2nc3ccccc3[nH]2)C(=O)[C@@](C)(CNC(=O)COC)N1c1cc(OC)cc(OC)c1` [compound 318], less than 100 nM. Still for that read-out and setting: the result for `CNC1=C(c2nc3ccccc3[nH]2)C(=O)[C@@](C)(COC)N1c1cc(OC)cc(OC)c1` [compound 298] reads less than 100 nM; that for `CNC1=C(c2nc3ccccc3[nH]2)C(=O)C(CO)(CO)N1c1cc(OC)cc(OC)c1` [compound 263], 100 to 1000 nM; that for `CNc1c(-c2nc3ccccc3[nH]2)c(=O)n(CCNC(C)=O)n1-c1cc(OC)cc(OC)c1` [compound 271], 100 to 1000 nM.

With `COc1cc(OC)cc(N2C(N)=C(c3nc4ccccc4[nH]3)C(=O)C23CN(C(C)=O)C3)c1` [compound 248], the EC50 lay in the range of 100 to 1000 nM. Take `CNC1=C(c2nc3ccccc3[nH]2)C(=O)C(C)(CCOC)N1c1cc(OC)cc(OC)c1` (stereo not drawn) [compound 220]: the EC50 was less than 100 nM.

For `COc1cc(OC)cc(N2C(N)=C(c3nc4ccccc4[nH]3)C(=O)C2CC(=O)O)c1` (stereo not drawn) [compound 244], the EC50 was in the range of 1000 to 10000 nM. On to `CNc1c(-c2nc3ccccc3[nH]2)c(=O)n(CCOC)n1-c1cc(OC)cc(OC)c1` [compound 266], for which the EC50 was less than 100 nM. As to `CNC1=C(c2nc3ccccc3[nH]2)C(=O)C(CO)(CCl)N1c1cc(OC)cc(OC)c1` (stereo not drawn) [compound 264], the EC50 is 100 to 1000 nM.

On to `CNC1=C(c2nc3ccccc3[nH]2)C(=O)[C@@](C)(CO)N1c1cc(OC)cc(OC)c1` [compound 211], for which the EC50 fell in the range of 100 to 1000 nM. On to `COc1cc(OC)cc(N2C(N)=C(c3nc4ccccc4[nH]3)C(=O)C2CCCCN)c1` (stereo not drawn) [compound 204], for which the EC50 lay in the range of 100 to 1000 nM.

Turning to `CNC1=C(c2nc3ccccc3[nH]2)C(=O)C(C)(CCO)N1c1cc(OC)cc(OC)c1` (stereo not drawn) [compound 217], the EC50 is less than 100 nM. `COc1cc(OC)cc(N2C(N)=C(c3nc4ccccc4[nH]3)C(=O)C2CCNc2ccccc2)c1` (stereo not drawn) [compound 232]: the EC50 lay within 100 to 1000 nM. For the molecule `COc1cc(OC)cc(N2C(N)=C(c3nc4ccccc4[nH]3)C(=O)C23CCCN(C(C)=O)C3)c1` (stereo not drawn) [compound 294], the EC50 was in the range of 1000 to 10000 nM. With `COc1cc(OC)cc(N2C(N)=C(c3nc4ccccc4[nH]3)C(=O)C2CCn2ccnc2)c1` (stereo not drawn) [compound 239], the EC50 was 100 to 1000 nM. For the molecule `CCOC(=O)C1CC2(CC1=O)C(=O)C(c1nc3ccccc3[nH]1)=C(N)N2c1cc(OC)cc(OC)c1` (stereo not drawn) [compound 313], the EC50 was 1000 to 10000 nM. For the molecule `COc1cc(OC)cc(N2C(N)=C(c3nc4ccccc4[nH]3)C(=O)C23CCCOC3)c1` (stereo not drawn) [compound 295], the EC50 fell in the range of 100 to 1000 nM.

As for `CNC1=C(c2nc3ccccc3[nH]2)C(=O)[C@@](C)(CCOC)N1c1cc(OC)cc(OC)c1` [compound 300], the EC50 was less than 100 nM.

The assay is the same for the next values; noted with them: class symbols; read-out: GTP Activity.
Take `COc1cc(OC)cc(N2C(N)=C(c3nc4ccccc4[nH]3)C(=O)C23CN(C)C3)c1` [compound 190]: the EC50 is 1000 to 10000 nM. For `CNC1=C(c2nc3ccccc3[nH]2)C(=O)C2(COC2)N1c1cc(OC)cc(OC)c1` [compound 194], the EC50 was less than 100 nM. In the case of `NC1=C(c2nc3ccccc3[nH]2)C(=O)CN1c1ccccc1Oc1ccccc1` [compound 46], the EC50 was 1000 to 10000 nM. As to `COc1cc(OC)cc(-n2nc(Nc3ccccc3)c(-c3nc4ccccc4[nH]3)c2O)c1` [compound 197], the EC50 was 1000 to 10000 nM.

Turning to `Cc1cc(C)cc(N2C(N)=C(c3nc4ccccc4[nH]3)C(=O)C2(C)C)c1` [compound 102], the EC50 lay within 100 to 1000 nM. On the same count and under the same terms, the result for `COc1cc(OC)cc(-n2c(=O)c(-c3nc4ccccc4[nH]3)c(N)n2C(C)C)c1` [compound 74] reads 1000 to 10000 nM. On to `CNC1=C(c2nc3ccccc3[nH]2)C(=O)C2(CN(C)C2)N1c1cc(OC)cc(OC)c1` [compound 193], for which the EC50 is 100 to 1000 nM. As for `CC[C@@]1(C)C(=O)C(c2nc3ccccc3[nH]2)=C(N)N1c1cc(OC)cc(OC)c1` [compound 85], the EC50 is 100 to 1000 nM. With `COCC1C(=O)C(c2nc3ccccc3[nH]2)=C(N)N1c1cc(OC)cc(OC)c1` (stereo not drawn) [compound 68], the EC50 lay within 100 to 1000 nM. As to `CNC1=C(c2nc3ccccc3n2C)C(=O)C(C)(C)N1c1cc(OC)cc(OC)c1` [compound 81], the EC50 is 100 to 1000 nM. As to `COc1cc(OC)cc(-n2c(NO)c(-c3nc4ccccc4[nH]3)c(=O)n2C)c1` [compound 143], the EC50 lay in the range of 1000 to 10000 nM.

For `[2H]C([2H])([2H])Oc1cc(OC([2H])([2H])[2H])cc(N2C(NC)=C(c3nc4ccccc4[nH]3)C(=O)C2(C)C)c1` [compound 175], the EC50 is less than 100 nM. `COc1cc(OC)cc(N2CC(=O)C(c3nc4cscc4[nH]3)=C2N)c1` [compound 173]: the EC50 was 1000 to 10000 nM.

`CC[C@@H]1C(=O)C(c2nc3ccccc3[nH]2)=C(NC)N1c1cc(OC)cc(OC)c1` [compound 184]: the EC50 is 100 to 1000 nM. In the case of `Cc1ccc(C)c(N2CC(=O)C(c3nc4c(C)cccc4[nH]3)=C2N)c1` [compound 17], the EC50 was in the range of 1000 to 10000 nM. On the same count and under the same terms, to `COc1cc(OC)cc(N2C(N)=C(c3nc4ccccc4[nH]3)C(=O)[C@@H]2C)c1` [compound 83] belongs 1000 to 10000 nM; to `C=C1C(=O)C(c2nc3ccccc3[nH]2)=C(N)N1c1cc(OC)cc(OC)c1` [compound 177], 100 to 1000 nM. With `CCC1(C)C(=O)C(c2nc3ccccc3[nH]2)=C(N)N1c1cc(OC)cc(OC)c1` (stereo not drawn) [compound 53], the EC50 lay within 100 to 1000 nM.

Take `CC(C)(C)c1ccccc1N1CC(=O)C(c2nc3ccccc3[nH]2)=C1N` [compound 48]: the EC50 fell in the range of 1000 to 10000 nM.

For `COc1cc(OC)cc(N2C(NCC3CC3)=C(c3nc4ccccc4[nH]3)C(=O)C2(C)C)c1` [compound 125], the EC50 lay within 1000 to 10000 nM. Take `CNC1=C(c2nc3ccccc3[nH]2)C(=O)C(C)(OC)N1c1cc(OC)cc(OC)c1` (stereo not drawn) [compound 120]: the EC50 was 100 to 1000 nM. Same read-out and setting: to `CNC1=C(c2nc3ccccc3[nH]2)C(=O)C(C)(C)N1c1cc(C)cc(C)c1` [compound 105] belongs 100 to 1000 nM.

Take `COc1cc(OC)cc(N2C(N)=C(c3nc4ccccc4[nH]3)C(=O)C2CN)c1` (stereo not drawn) [compound 70]: the EC50 lay in the range of 100 to 1000 nM. Take `COc1cc(OC)cc(N2C(N)=C(c3nc4ccccc4[nH]3)C(=O)C23CCC3)c1` [compound 108]: the EC50 is less than 100 nM.

Regarding `COC(=O)C1C(=O)C(c2nc3ccccc3[nH]2)=C(N)N1c1cc(OC)cc(OC)c1` (stereo not drawn) [compound 134], the EC50 was in the range of 1000 to 10000 nM. On to `CCC1(O)C(=O)C(c2nc3ccccc3[nH]2)=C(N)N1c1cc(OC)cc(OC)c1` (stereo not drawn) [compound 113], for which the EC50 is 100 to 1000 nM. On the same count and under the same terms, to `CCNC1=C(c2nc3ccccc3[nH]2)C(=O)[C@@H](CC)N1c1cc(OC)cc(OC)c1` [compound 186] belongs 100 to 1000 nM. `CC1(C)C(=O)C(c2nc3ccccc3[nH]2)=C(N)N1c1cc(Cl)cc(Cl)c1` [compound 159]: the EC50 is 1000 to 10000 nM.
